From patent EP0255028A2 (priority 1986, dated 1988) come the findings set out here.

Read-outs that look alike come from different tables or passages of the source. Bounds are passed on as bounds.

In test [1] the test system is durch PAF induzierte Aggregation von Humanthrambozyten. Description: Inhibition of PAF-induced platelet aggregation in vitro (Born and Cross method). In kind it is cell-based. The conditions noted are these: Homo sapiens. An excerpt:
1. In vitro Untersuchun^qen: Hemmung der Blutplättchen-Aqqreqation
Zur Bestimmung der PAF-antagonistischen Wirkung von Substanzen wurde die durch PAF induzierte Aggregation von Humanthrambozyten in vitro verwendet. Zur Gewinnung von thrombozytenreichem Plasma (TRP) erfolgt die Blutentnahme aus einer nicht gestauten Vene mit Hilfe einer Plastikspritze, in der sich 3,8 %ige Natriumcitratlösung befindet. Das Verhältnis zwischen Natriumcitratlösung und Blut beträgt 1:9. Nach vorsichtiger Durchmischung wird das Citratblut bei 150 x g (1200 U/min) 20 Minuten lang zentrifugiert. Die Messung der Thrombozytenaggregation erfolgt nach dem von Born und Cross ausgearbeiteten Verfahren (G. V. R. Born und M.J. Cross, J. Physiol. 168, 178 (1963)), wobei dem TRP unter ständigem Rühren PAF als Auslöser der Aggregation zugesetzt wird.
Die Prüfsubstanz wird jeweils 2 - 3 Minuten vor Auslösung der Aggregation in einem Volumen von 10 µl zugesetzt. Als Lösungsmittel dienen entweder Aqua.dest., Ethanol und/oder Dimethylsulgoxyd. Kontrollansätze erhalten entsprechende Volumina dieser Lösungsmittel. Nach Registrierung der Ausgangsabsorption (2-3 Minuten) wird die Aggregation mit PAF (5 x 10^-8M) induziert.
Zur Beurteilung von Substanzeffekten wird das Maximum der ersten Aggregationswelle verwendet. Die durch PAF induzierte maximale Absorptionsrate maximale Aggregation x 100 %) wird jeweils gleichzeitig in einem Parallelansatz (= Kontrollansatz in einem der Kanäle des 2 Kanal-Aggregometers) zu jedem Testansatz (zweiter Kanal) mitgeprüft und als 100 %-Wert verwendet.
Der unter dem Einfluß der Testsubstanz erreichte Aggregationswert wird als 100 % angegeben.
Jede Prüfsubstanz wird bei Konzentrationen von 10^-3 bis 10^-8M mit einem Stichprobenumfang von jeweils n= 4 hinsichtlich einer hemmenden Wirkung auf die durch PAF induzierte Thrombozytenaggregation untersucht. Danach wird eine Konzentrations-Wirkungskurve anhand von 3 Konzentrationen erstellt und die IK50 (Konzentration bei einer 50%igen Aggregationsheinmung) ermittelt. Die IK-Werte von Verbindungen der allgemeinen Formel I bewegen sich im allgemeinen um Werte, die kleiner als 9 µM sind.

In test [2] the target is Flunitrazopam-Bindungstest. Nature of the test: Flunitrazepam binding test (FNB). The conditions noted are these: read-out: IK50-Wert FNB.
Setting [3] is: read-out: IK50 (Konzentration bei einer 50%igen Aggregationshemmung).

As for `Cc1nnc2n1-c1ccc(Cl)cc1C(c1ccccc1)=NC2` [Alprazolam, reference compound], the results for the IC50 in test [1] (setting [3]), in test [1] (read-out: IK50-Wert PAF) and in test [2] were 14000 nM, 14000 nM and 5.5 nM, respectively.

For the compound `Cc1nnc2n1-c1ccc(OCCN3CCOCC3)cc1C(c1ccccc1Cl)NC2` (centres unmarked) [(i)], the IC50 in test [1] (read-out: IK50-Wert PAF) worked out at 400 nM; in test [2] it was 4550 nM.

As for `Cc1nnc2n1-c1ccc(C(=O)NCCN3CCOCC3)cc1C(c1ccccc1Cl)=NC2` [(g)], the IC50 in test [1] (read-out: IK50-Wert PAF) is 900 nM; in test [2] it was over 5000 nM.

For `Cc1nnc2n1-c1ccc(C(=O)OCCCN(C)C)cc1C(c1ccccc1Cl)=NC2` [(h)], the IC50 in test [1] (read-out: IK50-Wert PAF) is 1200 nM.

For the compound `Cc1nnc2n1-c1ccc(Cl)cc1C(c1ccccc1Cl)=NC2` [Triazolam, reference compound], the IC50 is 9000 nM in test [1] (setting [3]), 9000 nM in test [1] (read-out: IK50-Wert PAF) and 1.4 nM in test [2].

Take `Cc1nnc2n1-c1ccc(OCCN3CCOCC3)cc1C(c1ccccc1Cl)=NC2` [(d)]: the results for the IC50 in test [1] (read-out: IK50-Wert PAF) and in test [2] were 300 nM and 2680 nM, respectively.

On to `Cc1nnc2n1-c1ccc(OCc3cccnc3)cc1C(c1ccccc1)=NC2` [(k)], for which the IC50 in test [1] (read-out: IK50-Wert PAF) stood at 200 nM; in test [2] it was 1420 nM.

Turning to `Cc1nnc2n1-c1ccc(OCC(=O)NCC(C)C)cc1C(c1ccccc1Cl)=NC2` [(b)], the IC50 in test [1] (read-out: IK50-Wert PAF) was 400 nM; in test [2], 40 nM.

Consider `Cc1nnc2n1-c1ccc(OCC(=O)NC3CCN(C)CC3)cc1C(c1ccccc1Cl)=NC2` [(c)], for which the IC50 in test [1] (read-out: IK50-Wert PAF) came out at 800 nM; in test [2] it was 2160 nM.

In the case of `CCOC(=O)CCCOc1ccc2c(c1)C(c1ccccc1Cl)=NCc1nnc(C)n1-2` [(a), 8-(3-Ethoxycarbonyl-propyloxy)-1-Methyl-6-(2-chlorphenyl)-4H-(1,2,4]triazolo(4,3-a][1,4]benzodiazepin], the IC50 in test [1] (read-out: IK50-Wert PAF) is 1300 nM; in test [2], 570 nM.

Consider `Cc1nnc2n1-c1ccc(OCCN3C(=O)c4ccccc4C3=O)cc1C(c1ccccc1Cl)=NC2` [(e)], for which the IC50 in test [1] (read-out: IK50-Wert PAF) was determined as 300 nM.

With `Cc1nnc2n1-c1ccc(C3=NC(C)(C)CO3)cc1C(c1ccccc1Cl)=NC2` [(f)], the IC50 was determined as 400 nM in test [1] (read-out: IK50-Wert PAF) and 800 nM in test [2].

For `Cc1cnc2n1-c1ccc(OCCCN3CCOCC3)cc1C(c1ccccc1)=NC2` [(l)], the IC50 was 100 nM in test [1] (read-out: IK50-Wert PAF) and over 5000 nM in test [2].

As for `Cc1cnc2n1-c1ccc(OCc3cccnc3)cc1C(c1ccccc1)=NC2` (atropisomer, axis not shown) [(m)], in test [1] (read-out: IK50-Wert PAF), the IC50 was 100 nM.

For `Cc1nnc2n1-c1ccc(OCCCN3CCOCC3)cc1C(c1ccccc1)=NC2` [(j)], the results for the IC50 in test [1] (read-out: IK50-Wert PAF) and in test [2] were 100 nM and over 5000 nM, respectively.
